Experimental data from patent publication US20190022061A1 (priority 2017, published 2019).

Tested on: Diet-induced obesity (DIO) mice
Assay: Blood glucose level in DIO mice
Format: in vivo, C57BL/6J mice
Protocol: In this study, RAASUS products (KH103, KHJ and KHGD) were dosed three times a day (T ID) for 99 days. […] On day 63 post dosing, OGTT test were conducted for all of the mice. […] On day −5, day 14, day 28 the non-fast blood was collected to determine the non-fast BG, insulin, TG, HDL-C, LDL-C and TCHO level. On day 42, day 56, day 70, day 84 the fast blood was collected to determine the fast BG, insulin, TG, HDL-C, LDL-C and TCHO level.
Male C57BL/6J mice (Shanghai Laboratory Animal Center, Shanghai, China, 5 weeks) were fed with high fat diet (D12492i, Research Diet, New Brunswick, N.J.) (caloric contribution: protein, 20%; fat, 60%; carbohydrates, 20%) ad lib for 21 weeks for the induction of obesity.
The mice of Group 3, Group 4 were orally dosed with KH103, KHJ respectively three times per day at 9:00, 13:00, 17:00 and free drinl<KH103, KHJ respectively at day and night from Day O to Day 99. […]
The random blood glucose, insulin level were measured using tailing nick once per two weeks on day −5, day 14, day 28.
The fast blood glucose (fast from 17:30 to 8:00 AM) insulin level were measured using tailing nick once per two weeks on day 42, day 56, day 70, day 84. […]
Blood Glucose: Blood glucose was determined using the Glucosemeter (Johnson and Johnson) and the Glucose Test Strips (Johnson and Johnson).

## CC(C)c1c(C(=O)Nc2ccccc2)c(-c2ccccc2)c(-c2ccc(F)cc2)n1CC[C@@H](O)C[C@@H](O)CC(=O)O [Atorvastatin]
DIO mice, po three times a day, compared with the vehicle groups, 12 weeks post dose
  blood glucose level: significantly decrease
Animal study, diabetics, general statement
  blood sugar level: lower down
